# Reference: patent publication US7595158B2, “Bcl2L12 polypeptide activators and inhibitors” (Dana-Farber Cancer Institute, Inc., priority 2003, dated 2009)
# What was measured:
# Assay type in all cases: cell-based, human
# [1] = tested on: LNZ308 cells; assay: STS-induced DNA fragmentation (sub-G1, FACS) in LNZ308 cells; settings: LNZ308, 2.0 μM STS; control siRNA about 30 percent
# Method: (§1) LNZ308 and LN443 glioma cell lines transfected with control siRNA, Bcl2L12-targeting siRNA #4, or Bcl2L12-targeting siRNA #5 were treated with 0, 0.2, 0.5, 1.0, or 2.0 μM STS. DNA-fragmentation was assessed by quantifying sub-G1 peaks using FACS analysis. siRNA-mediated knockdown of Bcl2L12 polypeptide sensitized the glioma cell lines to STS-induced apoptosis. […] The maximum percent DNA fragmentation was about 30 percent, 45 percent, and 55 percent in LNZ308 cells transfected with control siRNA, siRNA #4, or siRNA #5, respectively, and treated with 2.0 μM STS (FIG. 10B). […] The maximum percent DNA fragmentation was about 40 percent, 60 percent, and 75 percent in LN443 cells transfected with control siRNA, siRNA #4, or siRNA #5, respectively, and treated with 2.0 μM STS (FIG. 10C).
# LNZ308 cells co-transfected with pcDNA3-GFP and either pSHAG-A or pSHAG-B were treated with 0.1 or 0.5 μM of STS for 24 hours, and DNA fragmentation was assessed.
# [2] = tested on: caspases 2, 3/7, 6, 8, and 9; assay: Caspase activity profile with fluorogenic peptide substrates in LNZ308 cells; settings: LNZ308, STS 24 hours
# Method: LNZ308 cells were transfected with control or siRNA oligonucleotide #5, and treated with STS for 24 hours. Subsequently, caspase activity was profiled using caspase-specific fluorogenic peptide substrates assessing the activity status of caspases 2, 3/7, 6, 8, and 9.
# [3] = tested on: pro-caspase-7; assay: Anti-L12-2 immunoprecipitation from U87MG cells, Western blot for caspase-7; settings: anti-L12-2 immunoprecipitates
# Method: To define further the molecular actions of Bcl2L12 polypeptides, the physical interactions with key post-mitochondrial apoptosis signaling molecules were assessed. Anti-L12-2 immunoprecipitates from lysates of LNZ308, U87MG, and 293T cells were subjected to western blot analysis for procaspases 7 and 3 and cytochrome c. Briefly, cells were lysed in IP buffer. Cleared supernatants were incubated with prebleed serum (8 μl) coupled to Protein A-sepharose 4B beads (Sigma) for 1 hour and subsequently with anti-L12-2 antiserum (8 μl) for 1 to 2 hours. For western blot analyses, polypeptides were separated by 4-12% SDS-PAGE, transferred to Hybond PVDF membranes (Amersham), blocked with 5% milk in phosphate-buffered saline with 0.05% Tween 20 (PBS/Tween) for 1 hour, washed with PBS/Tween and incubated with anti-cytochrome c antibodies (0.5 μg/ml; BD Pharmingen), anti-caspase-7 antibodies (0.5 μg/ml, BD Pharmingen), or anti-caspase-3 anitbodies (0.25 μg/ml, BD Transduction Laboratories) in PBS/Tween 20 with 5% milk. The blots were washed with PBS/Tween and developed with goat anti-rabbit IgG (1:10,000) or with goat anti-mouse antibodies (1:10,000) (Pierce) in 5% milk PBS/Tween. […] 1/40 of the lysate used for the immunoprecipitation was loaded to quantify the amount of co-immunoprecipitated caspase-7. […]
# [4] = tested on: LN443 cells; assay: STS-induced DNA fragmentation (sub-G1, FACS) in LN443 cells; settings: LN443, 2.0 μM STS; control siRNA about 40 percent
# Method: as §1
# [5] = tested on: Bcl2L12 polypeptide; assay: Endogenous Bcl2L12 polypeptide expression in U87MG cells (Western blot, immunofluorescence); settings: 48 hours post transfection, anti-L12-1 Western blot
# Method: Down-regulation of Bcl2L12 polypeptide expression via RNA interference was assessed in U87MG cells. Briefly, U87MG cells were co-transfected (1:10 ratio) with 0.5 μg of vector encoding GFP and 5 μg of either pSHAG-Control, pSHAG-Bcl2L12-A, pSHAG-Bcl2L12-B, or pSHAG-Bcl2L12-A+-B. Once transfected, the cells expressing GFP were sorted out by FACS analysis. […] The FACS-sorted cells were assessed for Bcl2L12 polypeptide expression. […] The FACS-sorted cells also were seeded in 24-well plates at a density of 1×10^5 cells, grown in 10% FBS-DMEM, and counted every day for three days.
# In another experiment, total cellular lysates of U87MG cells transfected with control siRNA, Bcl2L12-targeting siRNA #4, or Bcl2L12-targeting siRNA #5 were harvested 48 hours post transfection and subjected to western blot analysis using the anti-L12-1 antibody (1 μg/mL).
# The following experiments were performed to characterize the anti-Bcl2L12 polypeptide antibodies. U87MG cells stably expressing control or Bcl2L12-targeting shRNA (shL12-1) were subjected to deconvolution immunofluorescence microscopy using the anti-L12-2 antiserum. Cells were counterstained with DAPI. […]
# The potential anti-oncogenic impact of Bcl2L12 polypeptide knockdown was assessed in the U87MG human glioma model system. […] Bcl2L12 polypeptide expression was analyzed by western blotting using the anti-L12-1 antibody. […]
Substance,maximum percent DNA fragmentation [1] [%],caspase activity [2],co-immunoprecipated pro-caspase-7 [3],maximum percent DNA fragmentation [4] [%],Bcl2L12 polypeptide levels [5]
siRNA #5: Bcl2L12-targeting siRNA oligonucleotide 5′-UGGUGGAGCUGUUCUGUAG-3′; SEQ ID NO:7 (chemistry not given here),~55,enhanced caspase activity,significant decrease,~75,significant reduction
siRNA #4: Bcl2L12-targeting siRNA oligonucleotide 5′-AAGCUGGUCCGCCUGUCCU-3′; SEQ ID NO:6 (chemistry not given here),~45,–,–,~60,significant reduction
